Reference: article PMC3154276, “The Effect of the Potential PhoQ Histidine Kinase Inhibitors on Shigella flexneri Virulence” (PLoS ONE, 2011)

Key:
Assay type in all cases: cell-based
S. flexneri Sf9380 = assay: Gentamicin protection assay, HeLa cell invasion by Sf9380; conditions: for invasion of HeLa cells by Sf9380 (bacteria recovered / inoculated): bacteria pre-treated 8 hours, untreated Sf9380 5.87×10^−2
Method: The growth curve of Sf9380 treated with or without potential PhoQ inhibitors at concentration 200 µmol/L were tested. […] The gentamicin protection assay was used as a cellular model to evaluate the inhibitory effect of the four potential PhoQ inhibitors. The bacteria were treated with each of the four potential PhoQ inhibitors in a serial dilution and grown for 8 hours. Next, the bacteria were inoculated and incubated with HeLa cells for 60 min prior to the addition of gentamicin to kill extracellular bacteria. For testing intracellular growth and spreading to adjacent cell, cells were further incubated for 290 min [9]. The results of the assays were expressed as the number of bacteria recovered from gentamicin-treated cells divided by the number of inoculated bacteria added to the cell. After lysates of HeLa cells were plated, the number of CFU that formed on LB agar were counted.
Figure 6 The effects of potential PhoQ inhibitors on virulence of Shigella. […] The bacteria pre-treated with potential PhoQ inhibitor were added to HeLa cells at a multiplicity of infection of 100. Then gentamicin was added to kill extracellular bacteria and cell lysates were plated onto LB plates, and the colonies were counted. The results of the assays were expressed as the number of bacteria recovered from gentamicin-treated cells divided by the number of inoculated bacteria added to the cell. S. flexneri Sf9380 (treated without DMSO), a clinical strain with strong virulence, served as the positive control for the cell invasion assay; E. coli ATCC 25922 (treated without DMSO), an avirulent strain, served as the negative control for the cell invasion assay; bacteria treated with 0.1% DMSO (the solvent of the potential PhoQ inhibitor) also served as a control for the cell invasion assay. Values are means ± standard deviations from 6 independent wells. *p<0.01 vs. Sf9380. (A) The effects of potential PhoQ inhibitors on cell invasion of S. flexneri Sf9380 (B) The effects of potential PhoQ inhibitors on intracellular growth S. flexneri Sf9380. (C) The effects of potential PhoQ inhibitors on cell invasion of S. flexneri 2a 301 phoQ/phoP knock-out mutant.
Bacterial ability to invade HeLa cells was tested with a gentamicin protection assay. HeLa cells were grown in six-well tissue culture plates to semi-confluent monolayers (DMEM, 10% FCS, 5% CO2). Sf9380 or Sf301 ΔphoQ/phoP was treated with potential PhoQ inhibitors for 8 hours in LB at 37°C (final concentrations of 100,50,25,12.5 or 6.25 µmol/L) prior to infection. The bacteria pre-treated with potential PhoQ inhibitor without washing, were added to semi-confluent HeLa cells at a multiplicity of infection of 100, at the same time the bacteria were diluted and plated onto LB agar plates. The CFUs were counted as initial bacterial number before added into HeLa cells. Then the plates were centrifuged at 900×g for 5 minutes. After incubating at 37°C for 60 minutes (For testing intracellular growth and spreading to adjacent cell, cells were further incubated for 290 min [9].), the cells were washed three times with PBS, and gentamicin was added to the medium to a final concentration of 10 µg/ml for 20 minutes at 37°C. After the incubation, the HeLa cells in each well were lysed in 1 ml of PBS containing 0.1% Triton X-100 for 10 minutes at room temperature. The lysates were diluted and plated onto LB agar plates in triplicate. Colonies grown on LB plates were counted. The results of the assays were expressed as the number of bacteria recovered from gentamicin-treated cells divided by the number of inoculated bacteria added to the cell. The cells were inoculated with untreated Sf9380 or Sf301 ΔphoQ/phoP (treated without DMSO) as a positive control and E. coli ATCC 25922, an avirulent strain treated without DMSO, as a negative control. […]

[1] = Erythrocyte hemolysis assay; conditions: human erythrocytes (5% suspension), healthy human erythrocytes
Method: The hemolytic activity of the potential PhoQ inhibitors was determined using human erythrocytes. The erythrocytes were washed three times with sterile saline and resuspended to 5% cell concentration prior to assay. Then, 200 µl erythrocyte suspensions containing 25 µmol/L or 100 µmol/L concentrations of each potential PhoQ inhibitors were added in triplicate to the wells of the 96-well microtiter plates. Cells without potential PhoQ inhibitors treatment or with 1% Triton-100 treatment were used as the zero or 100% hemolysis control, respectively. The cell suspensions were incubated for 1 hour at 37°C and centrifuged for 10 minutes at 1200×g. Supernatants (100 µl) were transferred to another sterile plate, and the released hemoglobin was measured absorbance readings at 570 nm. […] The hemolysis assay was repeated twice.

[2] = tested on: Salmonella enterica Typhimurium SL1344; assay: Salmonella cell invasion assay (gentamicin protection, HeLa cells); conditions: for cell invasion rate of Salmonella enterica Typhimurium SL1344: HeLa cells, untreated Salmonella 6×10^−2; for effect on cell invasion of Salmonella SL1344 (words, discussion): Figure 7, concentration not restated
Method: The effects of potential PhoQ inhibitors on cell invasion of Salmonella were determined by gentamicin protection assay.
Figure 7 The effects of potential PhoQ inhibitors on cell invasion of Salmonella. […] The bacteria pre-treated with potential PhoQ inhibitor were added to HeLa cells at a multiplicity of infection of 100. Then gentamicin was added to kill extracellular bacteria and cell lysates were plated onto LB plates, and the colonies were counted. The results of the assays were expressed as the number of bacteria recovered from gentamicin-treated cells divided by the number of inoculated bacteria added to the cell. Salmonella enterica typhimurium SL1344 served as the positive control for the cell invasion assay; E. coli ATCC 25922 (treated without DMSO), an avirulent strain, served as the negative control for the cell invasion assay; bacteria treated with 0.1% DMSO also served as a control for the cell invasion assay. Values are means ± standard deviations from 6 independent wells. *p<0.01 vs. SL1344.
The gentamicin protection assay was used as a cellular model to evaluate the inhibitory effect of the four potential PhoQ inhibitors. Salmonella enterica typhimurium SL1344 was treated with each of the four potential PhoQ inhibitors (final concentrations: potential PhoQ inhibitor 1 was 12.5 µmol/L, 2 was 25 µmol/L, 3 was 100 µmol/L and 4 was 100 µmol/L) and grown for 8 hours. The bacteria pre-treated with potential PhoQ inhibitor without washing, were added to HeLa cells at a multiplicity of infection of 100, at the same time the bacteria were diluted and plated onto LB agar plates. The CFUs were counted as initial bacterial number before added into HeLa cells. Next, the bacteria were inoculated to HeLa cells and incubated with for 60 minutes prior to the addition of gentamicin to kill extracellular bacteria. After the incubation, the HeLa cells in each well were lysed in 1 ml of PBS containing 0.1% Triton X-100 for 10 minutes at room temperature. The lysates were diluted and plated onto LB agar plates in triplicate. Colonies grown on LB plates were counted. The results of the assays were expressed as the number of bacteria recovered from gentamicin-treated cells divided by the number of inoculated bacteria added to the cell. After lysates of HeLa cells were plated, the number of CFU that formed on LB agar were counted. The cells were inoculated with untreated SL1344 (treated without DMSO) as a positive control and E. coli ATCC 25922, an avirulent strain treated without DMSO, as a negative control. SL1344 was treated with the same amount of 0.1% DMSO as the other groups to control for any DMSO-specific effects. The cell invasion assay was performed in triplicate for each potential PhoQ inhibitor, and the assay was repeated twice.

SMILES | effect on invasion of HeLa cells by Sf9380 (S. flexneri Sf9380; 100 µmo/L) | hemolysis at 1 h, 25 µmol/L [1] [%] | hemolysis at 1 h, 100 µmol/L [1] [%] | effect on cell invasion of SL1344 ([2]; 100 µmo/L) | cell invasion rate of Salmonella enterica Typhimurium SL1344 ([2]; 100 µmo/L) | effect on cell invasion of Salmonella SL1344 (words, discussion) [2] | invasion of HeLa cells by Sf9380 (bacteria recovered / inoculated) (S. flexneri Sf9380; 100 µmo/L) | effect on invasion of HeLa cells by Sf9380 (S. flexneri Sf9380; concentrations lower than 100 µmo/L) | times lower invasion than the control, SL1344 ([2]; 100 µmo/L) [times] | times lower invasion than the control (S. flexneri Sf9380; 25 µmo/L, HeLa cells) [times] | effect on invasion of HeLa cells by Sf9380 (S. flexneri Sf9380; concentrations lower than 25 µmo/L) | times lower invasion than the control, SL1344 ([2]; 25 µmo/L) [times] | cell invasion rate of Salmonella enterica Typhimurium SL1344 ([2]; 25 µmo/L) | times lower invasion than untreated Sf9380 (S. flexneri Sf9380; 12.5 µmo/L, HeLa cells) [times] | invasion of HeLa cells by Sf9380 (bacteria recovered / inoculated) (S. flexneri Sf9380; 12.5 µmo/L) | effect on invasion of HeLa cells by Sf9380 (S. flexneri Sf9380; concentrations lower than 12.5 µmo/L) | times lower invasion than the control, SL1344 ([2]; 12.5 µmo/L) [times] | cell invasion rate of Salmonella enterica Typhimurium SL1344 ([2]; 12.5 µmo/L)
O=C(O)c1cc(-c2ccc(-c3ccccc3Cl)o2)nc2ccc3ccccc3c12 [Compound 4] | no effect | < 0.1 | < 0.1 | no obvious effect | 5.7×10^−2 | no obvious effect | – | – | – | – | – | – | – | – | – | – | – | –
O=C(O)c1ccc(Cl)c(-c2ccc(/C=N/NC(=O)c3ccc(Br)cc3)o2)c1 [Compound 3] | – | < 0.1 | < 0.1 | – | 0.036×10^−2 | inhibited | 1.95×10^−2 | no obvious effects | 166 | – | – | – | – | – | – | – | – | –
CCOc1ccccc1-c1cc(C(=O)N/N=C/c2ccc(OCc3ccccc3)c(OC)c2)c2ccccc2n1 [Compound 2] | – | < 0.1 | < 0.1 | – | – | inhibited | – | – | – | 16.3 | no obvious effects | 3.84 | 1.564×10^−2 | – | – | – | – | –
O=C(Nc1ccc(C2(c3cccc(NC(=O)c4cccc5ccccc45)c3)c3ccccc3C(=O)c3ccccc32)cc1)c1ccc2ccccc2c1 [Compound 1] | – | < 0.1 | < 0.1 | – | – | inhibited | – | – | – | – | – | – | – | 4.3 | 1.36×10^−2 | no obvious effects | 6.74 | 0.89×10^−2
